Reference: patent publication US8071630B2 (priority 2002, dated 2011)
Counter-ions that a name gives are not always drawn.

Assays:
[1] = system: ouabain-induced arrhythmias; details: in vivo; cited from earlier work
[2] = system: isoprenaline-induced tachycardia; details: in vivo; cited from earlier work
[3] = system: Aspergillus awamori transformed with the aequorin gene; assay: Example 6: aequorin luminometry of [Ca2+]c response (toxicity) in Aspergillus awamori; type: cell-based; details: FIG. 1A
[4] = Stability in aqueous solution; type: physicochemical; details: only freshly made stocks are effective; product a lot less toxic
Description: 4 pairs of optical enantiomers or salts thereof of the following chemicals were used in this study: • (R)-(+)-α-Methylbenzyl isocyanate and (S)-(−)-α-Methylbenzyl isocyanate. Only freshly made stocks of α-Methylbenzyl […] are effective.

For `CC(C)NCC(O)COc1cccc2ccccc12` (racemic) [propranolol hydrochloride], the “effectiveness in abolishing ouabain-induced arrhythmias” value (“effectiveness” below) [1] is listed as “equally effective”.
For `CC(C)NCC(O)COc1cccc2ccccc12` (single isomer, unassigned; (+)) [(+)-propranolol], the “activity in blocking isoprenaline-induced tachycardia relative to racemic propranolol” value [2] is listed as “less than a hundredth the activity of racemic propranolol” and the “effectiveness” value [1] is listed as “equally effective”.
With `COC(=O)C1=C(C)NC(C)=C([N+](=O)[O-])[C@@H]1c1ccccc1C(F)(F)F` [(R)-(+)-BAY K8644] the “[Ca2+]c response to 10 μM (S)-(−)-BAY K8644” value ([3]; preincubation 5 min with 10 μM simple dilution, n=6) was “significant inhibition” and the “[Ca2+]c final resting level” value ([3]; preincubation with 10 μM, then 10 μM (S)-(−)-BAY K8644) was “lower”.
For `CC(N=C=O)c1ccccc1` (stereo not drawn) [α-Methylbenzyl isocyanate], the “stability in aqueous solution” value [4] was “will react with water”.
For “(S)-(−)-propranolol hydrochloride [(S)-(−)-propranolol HCl]”, the “effectiveness” value [1] is given as “little effect”.
